Experimental data from PMC4490784, “Compensatory induction of MYC expression by sustained CDK9 inhibition via a BRD4-dependent mechanism” (eLife, 2015).

Experiments:
Test in all cases: KINOMEscan binding assay
ERK1 = molecular target: T1, ERK1 (Homo sapiens, UniProt P27361); details: read-out: % Retention on Solid Support
T1 construct: purchased DiscoveRx KINOMEscan
In short: (§1)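 i-CDK9 at 1 and 10 µM; competition binding against an immobilized active-site probe; >400-kinase panel.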

ABL1-phosphorylated = molecular target: T2, ABL1-phosphorylated (Homo sapiens, UniProt P00519); details: 1 µM i-CDK9; read-out: % Retention on Solid Support
T2 construct: purchased DiscoveRx KINOMEscan
In short: as §1

BLK = molecular target: T3, BLK (Homo sapiens, UniProt P51451); details: read-out: % Retention on Solid Support
T3 construct: purchased DiscoveRx KINOMEscan
In short: as §1

ADCK4 = molecular target: T4, ADCK4 (Homo sapiens, UniProt Q96D53); details: read-out: % Retention on Solid Support
T4 construct: purchased DiscoveRx KINOMEscan
In short: as §1

FGFR1 = molecular target: T5, FGFR1 (Homo sapiens, UniProt P11362); details: read-out: % Retention on Solid Support
T5 construct: purchased DiscoveRx KINOMEscan
In short: as §1

[1] = molecular target: T6, RPS6KA5(Kin.Dom.1-N-terminal) (Homo sapiens, UniProt O75582); details: read-out: % Retention on Solid Support
T6 construct: RPS6KA5(Kin.Dom.1-N-terminal); purchased DiscoveRx KINOMEscan
In short: as §1

TXK = molecular target: T7, TXK (Homo sapiens, UniProt P42681); details: read-out: % Retention on Solid Support
T7 construct: purchased DiscoveRx KINOMEscan
In short: as §1

YANK3 = molecular target: T8, YANK3 (Homo sapiens, UniProt Q86UX6); details: read-out: % Retention on Solid Support
T8 construct: purchased DiscoveRx KINOMEscan
In short: as §1

CDC2L1 = molecular target: T9, CDC2L1 (Homo sapiens, UniProt P21127); details: read-out: % Retention on Solid Support
T9 construct: purchased DiscoveRx KINOMEscan
In short: as §1

CLK4 = molecular target: T10, CLK4 (Homo sapiens, UniProt Q9HAZ1); details: read-out: % Retention on Solid Support
T10 construct: purchased DiscoveRx KINOMEscan
In short: as §1

ANKK1 = molecular target: T11, ANKK1 (Homo sapiens, UniProt Q8NFD2); details: read-out: % Retention on Solid Support
T11 construct: purchased DiscoveRx KINOMEscan
In short: as §1

PIP5K1C = molecular target: T12, PIP5K1C (Homo sapiens, UniProt O60331); details: 1 µM i-CDK9
T12 construct: purchased DiscoveRx KINOMEscan
In short: as §1

ABL1-nonphosphorylated = molecular target: T13, ABL1-nonphosphorylated (Homo sapiens, UniProt P00519); details: read-out: % Retention on Solid Support
T13 construct: purchased DiscoveRx KINOMEscan
In short: as §1

TBK1 = molecular target: T14, TBK1 (Homo sapiens, UniProt Q9UHD2); details: read-out: % Retention on Solid Support
T14 construct: purchased DiscoveRx KINOMEscan
In short: as §1

SBK1 = molecular target: T15, SBK1 (Homo sapiens, UniProt Q52WX2); details: read-out: % Retention on Solid Support
T15 construct: purchased DiscoveRx KINOMEscan
In short: as §1

CSNK2A1 = molecular target: T16, CSNK2A1 (Homo sapiens, UniProt P68400); details: read-out: % Retention on Solid Support
T16 construct: purchased DiscoveRx KINOMEscan
In short: as §1

AAK1 = molecular target: T17, AAK1 (Homo sapiens, UniProt Q2M2I8); details: read-out: % Retention on Solid Support
T17 construct: purchased DiscoveRx KINOMEscan
In short: as §1

PLK3 = molecular target: T18, PLK3 (Homo sapiens, UniProt Q9H4B4); details: read-out: % Retention on Solid Support
T18 construct: purchased DiscoveRx KINOMEscan
In short: as §1

MRCKB = molecular target: T19, MRCKB (Homo sapiens, UniProt Q9Y5S2); details: read-out: % Retention on Solid Support
T19 construct: purchased DiscoveRx KINOMEscan
In short: as §1

[2] = molecular target: T20, ABL1(F317I)-phosphorylated (Homo sapiens, UniProt P00519, F317I); details: 1 µM i-CDK9; read-out: % Retention on Solid Support
T20 construct: purchased DiscoveRx KINOMEscan
In short: as §1

ZAK = molecular target: T21, ZAK (Homo sapiens, UniProt Q9NYL2); details: read-out: % Retention on Solid Support
T21 construct: purchased DiscoveRx KINOMEscan
In short: as §1

SIK2 = molecular target: T22, SIK2 (Homo sapiens, UniProt Q9H0K1); details: read-out: % Retention on Solid Support
T22 construct: purchased DiscoveRx KINOMEscan
In short: as §1

PYK2 = molecular target: T23, PYK2 (Homo sapiens, UniProt Q14289); details: read-out: % Retention on Solid Support
T23 construct: purchased DiscoveRx KINOMEscan
In short: as §1

EPHB6 = molecular target: T24, EPHB6 (Homo sapiens, UniProt O15197); details: read-out: % Retention on Solid Support
T24 construct: purchased DiscoveRx KINOMEscan
In short: as §1

CDK11 = molecular target: T25, CDK11 (Homo sapiens, UniProt Q9BWU1)
T25 construct: purchased DiscoveRx KINOMEscan
In short: as §1

[3] = molecular target: T26, RSK3(Kin.Dom.2-C-terminal) (Homo sapiens, UniProt Q15349); details: read-out: % Retention on Solid Support
T26 construct: RSK3(Kin.Dom.2-C-terminal); purchased DiscoveRx KINOMEscan
In short: as §1

YES = molecular target: T27, YES (Homo sapiens, UniProt P07947); details: read-out: % Retention on Solid Support
T27 construct: purchased DiscoveRx KINOMEscan
In short: as §1

MET(Y1235D) = molecular target: T28, MET(Y1235D) (Homo sapiens, UniProt P08581, Y1235D)
T28 construct: purchased DiscoveRx KINOMEscan
In short: as §1

KIT = molecular target: T29, KIT (Homo sapiens, UniProt P10721); details: read-out: % Retention on Solid Support
T29 construct: purchased DiscoveRx KINOMEscan
In short: as §1

T17 sequence (Q2M2I8 whole entry): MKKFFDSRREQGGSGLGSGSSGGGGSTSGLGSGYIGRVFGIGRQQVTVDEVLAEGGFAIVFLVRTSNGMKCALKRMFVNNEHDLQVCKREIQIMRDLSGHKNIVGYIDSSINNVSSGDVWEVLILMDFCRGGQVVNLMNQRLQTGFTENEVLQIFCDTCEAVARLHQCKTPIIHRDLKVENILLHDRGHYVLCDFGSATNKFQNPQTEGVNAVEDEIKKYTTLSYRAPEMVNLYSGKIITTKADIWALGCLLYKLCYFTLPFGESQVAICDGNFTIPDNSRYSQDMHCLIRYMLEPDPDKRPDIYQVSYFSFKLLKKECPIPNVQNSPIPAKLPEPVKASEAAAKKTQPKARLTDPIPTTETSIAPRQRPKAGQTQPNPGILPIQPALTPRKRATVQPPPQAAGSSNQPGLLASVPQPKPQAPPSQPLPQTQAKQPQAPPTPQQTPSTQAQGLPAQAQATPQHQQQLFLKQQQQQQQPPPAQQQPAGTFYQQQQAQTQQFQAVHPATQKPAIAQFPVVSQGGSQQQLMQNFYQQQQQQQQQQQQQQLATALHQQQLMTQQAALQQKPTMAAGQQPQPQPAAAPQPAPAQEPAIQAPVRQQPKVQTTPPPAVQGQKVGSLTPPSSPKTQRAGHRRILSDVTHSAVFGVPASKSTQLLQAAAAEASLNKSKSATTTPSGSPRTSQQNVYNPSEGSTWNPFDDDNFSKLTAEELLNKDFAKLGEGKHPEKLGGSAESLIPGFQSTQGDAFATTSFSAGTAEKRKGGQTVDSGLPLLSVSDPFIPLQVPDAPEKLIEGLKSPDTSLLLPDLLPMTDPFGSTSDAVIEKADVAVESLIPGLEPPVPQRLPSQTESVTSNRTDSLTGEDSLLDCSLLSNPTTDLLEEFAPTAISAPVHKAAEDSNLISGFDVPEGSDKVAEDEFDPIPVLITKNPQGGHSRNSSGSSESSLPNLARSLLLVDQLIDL
T7 sequence (P42681 whole entry): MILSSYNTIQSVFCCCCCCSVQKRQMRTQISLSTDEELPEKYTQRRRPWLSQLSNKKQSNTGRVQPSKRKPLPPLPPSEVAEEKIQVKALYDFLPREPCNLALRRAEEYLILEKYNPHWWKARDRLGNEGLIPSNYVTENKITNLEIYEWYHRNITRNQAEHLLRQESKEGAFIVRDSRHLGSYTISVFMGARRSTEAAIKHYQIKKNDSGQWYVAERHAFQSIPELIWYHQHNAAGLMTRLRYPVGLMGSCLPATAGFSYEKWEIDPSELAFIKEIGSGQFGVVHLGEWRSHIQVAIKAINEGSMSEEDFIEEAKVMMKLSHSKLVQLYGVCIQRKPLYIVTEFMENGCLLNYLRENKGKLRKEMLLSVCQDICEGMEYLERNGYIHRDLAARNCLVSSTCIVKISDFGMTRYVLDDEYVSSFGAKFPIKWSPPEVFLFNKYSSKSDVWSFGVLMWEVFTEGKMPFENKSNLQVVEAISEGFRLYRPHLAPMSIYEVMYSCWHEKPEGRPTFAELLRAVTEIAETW
T9 sequence (P21127 whole entry): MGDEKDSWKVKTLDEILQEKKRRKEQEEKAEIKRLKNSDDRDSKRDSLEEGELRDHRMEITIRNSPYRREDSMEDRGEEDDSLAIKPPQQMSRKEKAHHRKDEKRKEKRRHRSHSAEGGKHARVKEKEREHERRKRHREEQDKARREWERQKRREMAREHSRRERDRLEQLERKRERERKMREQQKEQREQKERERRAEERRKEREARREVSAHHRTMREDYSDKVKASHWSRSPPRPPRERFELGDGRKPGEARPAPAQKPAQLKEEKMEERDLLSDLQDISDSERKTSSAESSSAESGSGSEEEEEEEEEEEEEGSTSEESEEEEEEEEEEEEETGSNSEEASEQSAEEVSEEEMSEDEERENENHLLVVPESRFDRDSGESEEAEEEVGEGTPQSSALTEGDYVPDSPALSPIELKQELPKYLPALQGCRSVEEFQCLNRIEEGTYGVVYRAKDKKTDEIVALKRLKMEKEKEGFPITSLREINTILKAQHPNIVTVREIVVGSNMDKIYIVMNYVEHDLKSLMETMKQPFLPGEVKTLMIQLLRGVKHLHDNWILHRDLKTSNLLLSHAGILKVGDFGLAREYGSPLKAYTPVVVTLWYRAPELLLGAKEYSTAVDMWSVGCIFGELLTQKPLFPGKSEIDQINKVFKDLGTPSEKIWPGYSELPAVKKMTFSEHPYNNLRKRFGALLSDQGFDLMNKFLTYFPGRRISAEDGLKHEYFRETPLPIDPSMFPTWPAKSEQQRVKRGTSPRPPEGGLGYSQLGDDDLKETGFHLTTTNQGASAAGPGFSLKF
T29 sequence (P10721 26-976): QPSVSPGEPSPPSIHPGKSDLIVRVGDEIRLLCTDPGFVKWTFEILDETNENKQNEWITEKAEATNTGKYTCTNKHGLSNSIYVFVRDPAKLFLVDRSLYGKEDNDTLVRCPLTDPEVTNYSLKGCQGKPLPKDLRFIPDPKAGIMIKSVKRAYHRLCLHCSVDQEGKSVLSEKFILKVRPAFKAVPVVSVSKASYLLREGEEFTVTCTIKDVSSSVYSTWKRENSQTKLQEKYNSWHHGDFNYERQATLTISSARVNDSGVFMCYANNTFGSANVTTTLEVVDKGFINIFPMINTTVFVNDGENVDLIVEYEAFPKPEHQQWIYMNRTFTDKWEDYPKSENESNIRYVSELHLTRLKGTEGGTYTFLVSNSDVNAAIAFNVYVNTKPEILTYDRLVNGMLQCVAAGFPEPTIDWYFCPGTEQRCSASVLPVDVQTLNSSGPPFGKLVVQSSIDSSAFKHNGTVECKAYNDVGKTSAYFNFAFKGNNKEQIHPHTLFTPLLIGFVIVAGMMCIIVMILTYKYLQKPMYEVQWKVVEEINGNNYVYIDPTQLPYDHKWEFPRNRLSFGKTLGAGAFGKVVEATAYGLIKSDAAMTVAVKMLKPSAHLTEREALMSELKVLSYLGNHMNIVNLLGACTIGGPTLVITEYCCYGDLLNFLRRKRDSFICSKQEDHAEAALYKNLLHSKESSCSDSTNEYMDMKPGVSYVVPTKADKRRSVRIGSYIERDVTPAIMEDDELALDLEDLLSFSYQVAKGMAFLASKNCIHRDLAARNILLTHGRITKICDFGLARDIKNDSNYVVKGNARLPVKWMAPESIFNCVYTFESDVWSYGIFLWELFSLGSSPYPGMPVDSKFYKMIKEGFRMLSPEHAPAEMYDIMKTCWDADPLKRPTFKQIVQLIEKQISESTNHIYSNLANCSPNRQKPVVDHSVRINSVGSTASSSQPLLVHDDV
T23 sequence (Q14289 whole entry): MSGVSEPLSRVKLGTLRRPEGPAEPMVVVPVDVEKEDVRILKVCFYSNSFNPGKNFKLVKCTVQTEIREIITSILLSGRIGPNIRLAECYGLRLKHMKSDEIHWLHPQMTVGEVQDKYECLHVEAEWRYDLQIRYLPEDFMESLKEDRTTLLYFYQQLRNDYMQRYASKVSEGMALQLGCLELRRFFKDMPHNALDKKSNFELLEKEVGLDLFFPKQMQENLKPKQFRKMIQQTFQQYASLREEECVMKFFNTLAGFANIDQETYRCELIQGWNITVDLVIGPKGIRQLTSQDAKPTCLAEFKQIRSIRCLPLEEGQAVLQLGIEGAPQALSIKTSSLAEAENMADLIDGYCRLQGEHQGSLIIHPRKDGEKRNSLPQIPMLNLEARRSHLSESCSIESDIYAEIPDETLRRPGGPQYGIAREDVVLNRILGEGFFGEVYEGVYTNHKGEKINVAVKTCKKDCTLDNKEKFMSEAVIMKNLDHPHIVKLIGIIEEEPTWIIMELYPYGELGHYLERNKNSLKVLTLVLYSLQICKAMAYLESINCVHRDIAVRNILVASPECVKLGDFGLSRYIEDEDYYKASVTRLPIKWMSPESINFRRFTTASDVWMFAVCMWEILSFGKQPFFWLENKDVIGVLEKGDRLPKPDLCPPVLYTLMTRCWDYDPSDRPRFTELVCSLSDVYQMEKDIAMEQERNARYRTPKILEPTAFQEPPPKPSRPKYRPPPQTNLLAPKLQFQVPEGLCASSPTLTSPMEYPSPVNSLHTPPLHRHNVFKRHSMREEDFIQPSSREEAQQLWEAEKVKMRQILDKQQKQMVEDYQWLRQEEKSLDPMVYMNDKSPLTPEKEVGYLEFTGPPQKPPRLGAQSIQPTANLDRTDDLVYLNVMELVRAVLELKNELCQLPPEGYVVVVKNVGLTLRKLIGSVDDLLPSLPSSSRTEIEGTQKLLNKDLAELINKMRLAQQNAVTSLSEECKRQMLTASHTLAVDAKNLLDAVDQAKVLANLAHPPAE
T3 sequence (P51451 whole entry): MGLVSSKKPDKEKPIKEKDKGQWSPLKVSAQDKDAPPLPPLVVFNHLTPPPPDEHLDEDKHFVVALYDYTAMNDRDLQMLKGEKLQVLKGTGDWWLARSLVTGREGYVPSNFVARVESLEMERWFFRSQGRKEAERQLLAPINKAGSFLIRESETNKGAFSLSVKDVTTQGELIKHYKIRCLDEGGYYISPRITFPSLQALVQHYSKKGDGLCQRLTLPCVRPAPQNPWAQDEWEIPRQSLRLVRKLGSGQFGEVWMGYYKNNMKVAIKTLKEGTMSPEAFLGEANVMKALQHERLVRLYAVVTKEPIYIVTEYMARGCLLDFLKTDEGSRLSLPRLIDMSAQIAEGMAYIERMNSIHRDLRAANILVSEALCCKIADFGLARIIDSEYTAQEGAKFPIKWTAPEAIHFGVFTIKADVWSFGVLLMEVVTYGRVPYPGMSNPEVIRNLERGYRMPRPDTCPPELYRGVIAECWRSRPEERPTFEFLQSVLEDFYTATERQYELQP

`N[C@H]1CC[C@H](Nc2cc(-c3cccc(NCc4cccc(F)c4)n3)c(Cl)cn2)CC1` [i-CDK9, N2′-(trans-4-aminocyclohexyl)-5′-chloro-N6-(3-fluorobenzyl)-2,4′-bipyridine-2′,6-diamine] was tested, and the remaining binding at 1 µM (ERK1; 1 µM i-CDK9) was 100%, the remaining binding at 10 µM (ERK1; 10 µM i-CDK9) was 93% and the remaining binding at 1 µM (ABL1-phosphorylated) was 67%. It also gave a remaining binding at 1 µM (BLK; 1 µM i-CDK9) of 100%, a remaining binding at 10 µM (BLK; 10 µM i-CDK9) of 100% and a remaining binding at 1 µM (ADCK4; 1 µM i-CDK9) of 99%. The remaining binding at 10 µM (ADCK4; 10 µM i-CDK9) was 48%, the remaining binding at 1 µM (FGFR1; 1 µM i-CDK9) was 100% and the remaining binding at 10 µM (FGFR1; 10 µM i-CDK9) was 100%. It also gave a remaining binding at 1 µM ([1]; 1 µM i-CDK9) of 79%, a remaining binding at 10 µM ([1]; 10 µM i-CDK9) of 100% and a remaining binding at 1 µM (TXK; 1 µM i-CDK9) of 100%. For the same molecule, the remaining binding at 10 µM (TXK; 10 µM i-CDK9) was 100%, the remaining binding at 1 µM (YANK3; 1 µM i-CDK9) was 89% and the remaining binding at 10 µM (YANK3; 10 µM i-CDK9) was 50%. For the same molecule, the remaining binding at 1 µM (CDC2L1; 1 µM i-CDK9) was 92%, the remaining binding at 10 µM (CDC2L1; 10 µM i-CDK9) was 36% and the remaining binding at 1 µM (CLK4; 1 µM i-CDK9) was 18%. It also gave a remaining binding at 10 µM (CLK4; 10 µM i-CDK9) of 4.2%, a remaining binding at 1 µM (ANKK1; 1 µM i-CDK9) of 100% and a remaining binding at 10 µM (ANKK1; 10 µM i-CDK9) of 100%. For the same molecule, the “% Retention on Solid Support” value (PIP5K1C) was 85%, the remaining binding at 1 µM (ABL1-nonphosphorylated; 1 µM i-CDK9) was 81% and the remaining binding at 10 µM (ABL1-nonphosphorylated; 10 µM i-CDK9) was 100%. It also gave a remaining binding at 1 µM (TBK1; 1 µM i-CDK9) of 100%, a remaining binding at 10 µM (TBK1; 10 µM i-CDK9) of 100% and a remaining binding at 1 µM (SBK1; 1 µM i-CDK9) of 100%. For the same molecule, the remaining binding at 10 µM (SBK1; 10 µM i-CDK9) was 100%, the remaining binding at 1 µM (CSNK2A1; 1 µM i-CDK9) was 100% and the remaining binding at 10 µM (CSNK2A1; 10 µM i-CDK9) was 100%. The remaining binding at 1 µM (AAK1; 1 µM i-CDK9) was 100%, the remaining binding at 10 µM (AAK1; 10 µM i-CDK9) was 100% and the remaining binding at 1 µM (PLK3; 1 µM i-CDK9) was 96%. For the same molecule, the remaining binding at 10 µM (PLK3; 10 µM i-CDK9) was 89%, the remaining binding at 1 µM (MRCKB; 1 µM i-CDK9) was 95% and the remaining binding at 10 µM (MRCKB; 10 µM i-CDK9) was 100%. It also gave a remaining binding at 1 µM [2] of 100%, a remaining binding at 1 µM (ZAK; 1 µM i-CDK9) of 100% and a remaining binding at 10 µM (ZAK; 10 µM i-CDK9) of 93%. The remaining binding at 1 µM (SIK2; 1 µM i-CDK9) was 90%, the remaining binding at 10 µM (SIK2; 10 µM i-CDK9) was 64% and the remaining binding at 1 µM (PYK2; 1 µM i-CDK9) was 100%. For the same molecule, the remaining binding at 10 µM (PYK2; 10 µM i-CDK9) was 100%, the remaining binding at 1 µM (EPHB6; 1 µM i-CDK9) was 47% and the remaining binding at 10 µM (EPHB6; 10 µM i-CDK9) was 74%. The “% Retention on Solid Support” value (CDK11; 1 µM i-CDK9) was 94%, the “% Retention on Solid Support” value (CDK11; 10 µM i-CDK9) was 100% and the remaining binding at 1 µM ([3]; 1 µM i-CDK9) was 73%. For the same molecule, the remaining binding at 10 µM ([3]; 10 µM i-CDK9) was 100%, the remaining binding at 1 µM (YES; 1 µM i-CDK9) was 84% and the remaining binding at 10 µM (YES; 10 µM i-CDK9) was 90%. For the same molecule, the “% Retention on Solid Support” value (MET(Y1235D); 1 µM i-CDK9) was 100%, the “% Retention on Solid Support” value (MET(Y1235D); 10 µM i-CDK9) was 11% and the remaining binding at 1 µM (KIT; 1 µM i-CDK9) was 91%. It also gave a remaining binding at 10 µM (KIT; 10 µM i-CDK9) of 100%.
